Data published in article PMC3401907, “Cellular Uptakes, Biostabilities and Anti-miR-210 Activities of Chiral Arginine-PNAs in Leukaemic K562 Cells” (Chembiochem, 2012).

Columns and labels:
γ-globin gene expression = γ-globin gene expression by RT-qPCR; format: cell-based, human; details: mithramycin-treated (15 nM) K562 cells, PNA 2 μM single administration, 72 h, n=3
Method: The strong inhibition of miR-210 by PNA2 and PNA4 might thus result in appreciable reduction of γ-globin gene expression.
Figure 6 A) Effects of pept-1, PNA1, PNA2 and PNA4 molecules (each 2 μM) on γ-globin content in K562 cell cultures for 72 h with MTH (15 nM). Data are reported as arbitrary units relative to cells treated with pept-1 and MTH (average±SD, n=3, *: p<0.05, **: p<0.01). B), C) Effects of treatment (72 h) with pept-1, PNA1, PNA2 and PNA4 molecules on K562 cells induced to erythroid differentiation by MTH (15 nM): B) summary of three independent experiments, C) a representative experiment showing staining of the cells with benzidine.
The nucleotide sequences used for real-time qPCR analysis of γ-globin mRNAs were γ-globin forward primer (5′-TGGCAA GAAGGT GCTGAC TTC-3′), γ-globin reverse primer (5′-TCACTC AGCTGG GCAAAG G-3′) and γ-globin probe (5′-FAM-TGGGAG ATGCCA TAAAGC ACCTGG-TAMRA-3′).[25] The relative expression was calculated by the comparative cycle threshold method with endogenous control human 18S rRNA as reference genes.[25]

[1] = test system: DNA2 (mismatched DNA, G→T); assay: Melting temperature (Tm) of PNA:DNA duplexes, single-mismatch DNA; format: binding
Text: Sequence selectivity is a very important issue in view of the use of PNAs in cellular systems, because partial hybridisation might occur with other unrelated miRNAs or, most importantly, with mRNA targets. We analysed the sequence selectivities of our PNAs with stricter models (DNA2 and RNA2) involving single base mismatches (G→T or G→U) located in the middle of the target sequences. In each case the sequence selectivity was confirmed by significant lowering of the melting temperature. The ranges of ΔTm due to the presence of these single mismatches were 8–21 °C for DNA, with the maximum drop in the case of PNA4 and the minimum observed in that of PNA6. For the latter it should be considered that the mismatch was facing the last chiral monomer, preventing the cooperative effect observed in the case of 2D-modifed highly constrained PNA.[22]
(§1) Measurements of Tm values: The Tm values were determined with a Lambda Bio 20 spectrophotometer and a Peltier PTP6 temperature programmer. Thermal denaturation profiles were measured by monitoring the absorbance at 260 nm from 18 to 90 °C with a heating rate of 1 °C min^−1 and recording every 0.1 °C. Measurement conditions: [PNA]=[DNA] or [RNA]=5 μM in PBS buffer [pH 7.0, NaCl (100 mM), NaH2PO4⋅H2O (10 mM), EDTA (0.1 mM)] with urea (5 M).

miR-210 = miR-210 content by RT-qPCR analysis; format: cell-based, human; details: K562 cells, 24 h
Method: K562 cells were treated with 15 nM mithramycin in the presence of a PNA (2 μM), and after 24 h RNA was isolated and miR-210 was assayed by RT-qPCR analysis. This type of test has been used to evaluate miR content in many studies because it allows the free-miR content to be evaluated. […] Figure 5 A and B reports the obtained data, showing that inhibition of miR bioavailability was induced both with the modified PNA and with the peptide-conjugated one, whereas in the case of PNA1 it was unchanged. […] This might be related to inhibition of pre-miR maturation or to unavailability of the miR to the qRT-PCR analysis due to strong complexation with the PNA. In either case the bioavailability of the miR for targeting other genes should be reduced.
Transfection procedures: Anti-miR-210 PNAs were directly added to the cellular medium to reach the indicated final concentrations. K562 cells were cultured in 24-well plates starting from the initial density of 30 000 cells per mL. MTH was administrated together with anti-miR PNAs.
RNA extraction: Cells were isolated by centrifugation at 1500 rpm for 10 min at 4 °C, washed in PBS and lysed in Tri-reagent (Sigma–Aldrich) according to the manufacturer's instructions. The isolated RNA was washed once with cold ethanol (75 %), dried and dissolved in ultrapure nuclease-free water.
Real-time quantitative PCR: For microRNA quantification with real-time RT-PCR reagents, the primers and probes were obtained from Applied Biosystems. Reverse transcriptase (RT) reactions were performed with a TaqMan MicroRNA Reverse Transcription Kit (Applied Biosystems) for hsa-miR-210, hsa-miR-10a, hsa-miR-93, hsa-miR-99b, hsa-miR-126, hsa-miR-149, hsa-miR-424, hsa-miR-483-5p, hsa-miR-625, hsa-let-7c and the iQTM5 real-time PCR System Instrument (Bio-Rad). Relative expression was calculated by the comparative cycle threshold method and U6 microRNA was used as reference gene to normalise all RNA samples, because it is constant in the assayed samples by miR-profiling and quantitative RT-PCR analysis as previously reported.[25]

[2] = test system: let-7c, miR-10a, miR-93, miR-99b, miR-126, miR-149, miR-424, miR-494, miR-483-5p and miR-625; assay: Content of other microRNAs by RT-PCR (sequence specificity); format: cell-based, human; details: n=3
Method: Figure 5 A), B) Effects of treatment with PNA1, PNA2, PNA3, PNA4, PNA5 and PNA6 molecules on miR-210 contents in cells cultured for 24 h A) in the absence (□), and B) in the presence (▪) of MTH (15 nM). Data are reported as arbitrary units relative to cells treated with pept-1 (□) or with pept-1 and MTH (▪). C) Effects of treatment with PNA4 on miRNA contents in cells cultured for 24 h in the presence of MTH; RT-PCR was performed with a TaqMan MicroRNA Reverse Transcription Kit (Applied Biosystems) for let-7c, miR-10a, miR-93, miR-99b, miR-126, miR-149, miR-424, miR-483-5p and miR-625. Data are reported as arbitrary units relative to untreated cells (average ±SD; n=3).
Real-time quantitative PCR: For microRNA quantification with real-time RT-PCR reagents, the primers and probes were obtained from Applied Biosystems. […] Relative expression was calculated by the comparative cycle threshold method and U6 microRNA was used as reference gene to normalise all RNA samples, because it is constant in the assayed samples by miR-profiling and quantitative RT-PCR analysis as previously reported.[25]

[3] = test system: DNA1 (full-match antiparallel DNA); assay: Melting temperature (Tm) of PNA:DNA duplexes, full-match DNA; format: binding; details: UV absorbance at 260 nm, strand concentration 5 μM
Method: as §1, with “Measurement conditions: [PNA]=[DNA] or [RNA]=5 μM in PBS buffer [pH 7.0, NaCl (100 mM), NaH2PO4⋅H2O (10 mM), EDTA (0.1 mM)] with urea (5 M).” left out

With “H-C5LArgC5LArgG5LArgC5LArgT5LArgG5LArgT5LArgC5LArgACACGCACAG-NH2 [PNA4, 5L Arg (C5) backbone-modified 18-mer PNA, model 2, stretch of consecutive modified monomers]” the “effect on γ-globin gene expression” value (γ-globin gene expression) was “inhibited γ-globin gene expression”, the “ΔTm due to single mismatch, DNA” value ([1]; DNA1 vs DNA2 (G→T in the middle of the target), urea 5 M) was 21 °C and the “Tm, DNA2 in urea (5 M)” value ([1]; single mismatch, UV absorbance at 260 nm, PBS buffer pH 7 with urea 5 M, strand concentration 5 μM) was 56 °C. The “miR-210 inhibition upon treatment with mithramycin” value (miR-210; PNA 2 μM with MTH 15 nM, relative to pept-1 and MTH) was “best results”, the “inhibition of miR-210 bioavailability (miR-210 content)” value (miR-210; PNA 2 μM, Figure 5 A and B, relative to pept-1) was “Stronger inhibition” and the “effect on miR-149 hybridisation signal” value ([2]; K562 cells 24 h in the presence of MTH, RT-PCR) was “inhibition of the hybridisation signal”. For the same substance, the “effect on hybridisation availability of other miRs” value ([2]; K562 cells 24 h with MTH, let-7c, miR-10a, miR-93, miR-99b, miR-126, miR-424, miR-494, miR-483-5p, miR-625) was “no major effects”, the “Tm, DNA1 in urea (5 M)” value ([3]; PBS buffer pH 7 (NaCl 100 mM, NaH2PO4 10 mM, EDTA 0.1 mM) with urea 5 M) was 77 °C and the “Tm, DNA1 in water” value ([3]; PBS buffer pH 7, no urea, 18 to 90 °C at 1 °C/min) was >90 °C.
